Two molecules from publication PMC11096414 (Nature Communications, 2024) can be followed below.

Format in all cases: cell-based
The target of test [1] is T1, IKKβ (Homo sapiens, UniProt O14920).
T1 construct: gene IKBKB; endogenous full-length protein in 786-O cells, detected by anti-IKKβ immunoblot
T1 sequence (O14920 1-756): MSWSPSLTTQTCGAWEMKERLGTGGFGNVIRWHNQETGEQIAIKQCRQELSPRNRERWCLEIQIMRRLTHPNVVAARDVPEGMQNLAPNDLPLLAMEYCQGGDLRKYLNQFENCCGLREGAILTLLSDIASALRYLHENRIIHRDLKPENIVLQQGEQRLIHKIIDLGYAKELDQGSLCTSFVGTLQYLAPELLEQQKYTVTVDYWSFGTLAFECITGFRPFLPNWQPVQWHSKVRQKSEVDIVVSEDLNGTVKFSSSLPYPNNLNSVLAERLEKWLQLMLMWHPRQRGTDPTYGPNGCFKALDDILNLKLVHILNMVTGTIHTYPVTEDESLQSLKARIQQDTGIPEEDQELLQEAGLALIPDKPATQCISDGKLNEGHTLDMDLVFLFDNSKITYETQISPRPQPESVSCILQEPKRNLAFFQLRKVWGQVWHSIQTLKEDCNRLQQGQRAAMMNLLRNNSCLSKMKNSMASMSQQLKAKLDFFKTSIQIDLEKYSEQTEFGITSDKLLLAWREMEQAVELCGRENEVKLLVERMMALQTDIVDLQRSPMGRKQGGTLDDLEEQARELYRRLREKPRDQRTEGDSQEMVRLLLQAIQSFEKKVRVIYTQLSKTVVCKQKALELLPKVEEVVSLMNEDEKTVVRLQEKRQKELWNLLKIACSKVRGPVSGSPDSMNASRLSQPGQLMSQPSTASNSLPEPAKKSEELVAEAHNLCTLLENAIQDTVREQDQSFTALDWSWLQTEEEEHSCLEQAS
Put plainly: competition with 4-OI-alk in affinity pull-down, immunoblot. As to conditions: covalent; 125 μM 4-OI for 30 min, then 125 μM 4-OI-alk for 4 h in intact 786-O cells. Background: In western blotting, separated proteins are transferred to a membrane and probed.

In test [2] the target is T2, MAVS (Homo sapiens, UniProt Q7Z434).
T2 construct: endogenous full-length protein in 786-O cells, detected by anti-MAVS immunoblot
T2 sequence (Q7Z434 2-540): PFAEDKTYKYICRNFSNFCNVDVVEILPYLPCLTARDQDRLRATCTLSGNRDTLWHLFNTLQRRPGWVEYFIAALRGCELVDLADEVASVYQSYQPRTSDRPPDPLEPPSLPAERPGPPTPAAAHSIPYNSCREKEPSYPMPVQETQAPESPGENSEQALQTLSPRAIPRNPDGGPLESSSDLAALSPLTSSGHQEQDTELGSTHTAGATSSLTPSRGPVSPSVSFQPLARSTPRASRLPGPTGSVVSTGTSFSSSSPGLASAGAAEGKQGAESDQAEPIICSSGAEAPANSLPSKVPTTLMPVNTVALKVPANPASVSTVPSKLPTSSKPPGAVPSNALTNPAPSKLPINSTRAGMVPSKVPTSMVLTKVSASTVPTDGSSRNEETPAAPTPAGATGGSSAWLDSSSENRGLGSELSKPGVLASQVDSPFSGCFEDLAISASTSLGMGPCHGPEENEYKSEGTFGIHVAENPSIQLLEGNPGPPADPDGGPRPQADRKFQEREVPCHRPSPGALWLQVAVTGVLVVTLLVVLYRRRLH
The test is described as above. As to conditions: covalent; 125 μM 4-OI for 30 min, then 125 μM 4-OI-alk for 4 h in intact 786-O cells.

Test [3] has as its target T1, IKKβ. Put plainly: alkyne probe labelling in cells, CuAAC to biotin azide, streptavidin pull-down, immunoblot. Conditions: covalent; 125 μM in intact 786-O cells.
For a further test, the target named is T3, Flag-MAVS (Homo sapiens, UniProt Q7Z434).
T3 construct: Flag-tagged MAVS expressed from plasmid in HEK293T cells
T3 sequence (Q7Z434 2-540): as above
Put plainly: alkyne probe labelling in transfected cells, CuAAC to biotin azide, streptavidin pull-down, anti-Flag immunoblot. As to conditions: covalent; 125 μM, 4 h in intact HEK293T cells.

The target of another test is T4, JAK1 (Homo sapiens, UniProt P23458).
T4 construct: endogenous full-length protein in 786-O cells, detected by anti-Jak1 immunoblot
T4 sequence (P23458 whole entry): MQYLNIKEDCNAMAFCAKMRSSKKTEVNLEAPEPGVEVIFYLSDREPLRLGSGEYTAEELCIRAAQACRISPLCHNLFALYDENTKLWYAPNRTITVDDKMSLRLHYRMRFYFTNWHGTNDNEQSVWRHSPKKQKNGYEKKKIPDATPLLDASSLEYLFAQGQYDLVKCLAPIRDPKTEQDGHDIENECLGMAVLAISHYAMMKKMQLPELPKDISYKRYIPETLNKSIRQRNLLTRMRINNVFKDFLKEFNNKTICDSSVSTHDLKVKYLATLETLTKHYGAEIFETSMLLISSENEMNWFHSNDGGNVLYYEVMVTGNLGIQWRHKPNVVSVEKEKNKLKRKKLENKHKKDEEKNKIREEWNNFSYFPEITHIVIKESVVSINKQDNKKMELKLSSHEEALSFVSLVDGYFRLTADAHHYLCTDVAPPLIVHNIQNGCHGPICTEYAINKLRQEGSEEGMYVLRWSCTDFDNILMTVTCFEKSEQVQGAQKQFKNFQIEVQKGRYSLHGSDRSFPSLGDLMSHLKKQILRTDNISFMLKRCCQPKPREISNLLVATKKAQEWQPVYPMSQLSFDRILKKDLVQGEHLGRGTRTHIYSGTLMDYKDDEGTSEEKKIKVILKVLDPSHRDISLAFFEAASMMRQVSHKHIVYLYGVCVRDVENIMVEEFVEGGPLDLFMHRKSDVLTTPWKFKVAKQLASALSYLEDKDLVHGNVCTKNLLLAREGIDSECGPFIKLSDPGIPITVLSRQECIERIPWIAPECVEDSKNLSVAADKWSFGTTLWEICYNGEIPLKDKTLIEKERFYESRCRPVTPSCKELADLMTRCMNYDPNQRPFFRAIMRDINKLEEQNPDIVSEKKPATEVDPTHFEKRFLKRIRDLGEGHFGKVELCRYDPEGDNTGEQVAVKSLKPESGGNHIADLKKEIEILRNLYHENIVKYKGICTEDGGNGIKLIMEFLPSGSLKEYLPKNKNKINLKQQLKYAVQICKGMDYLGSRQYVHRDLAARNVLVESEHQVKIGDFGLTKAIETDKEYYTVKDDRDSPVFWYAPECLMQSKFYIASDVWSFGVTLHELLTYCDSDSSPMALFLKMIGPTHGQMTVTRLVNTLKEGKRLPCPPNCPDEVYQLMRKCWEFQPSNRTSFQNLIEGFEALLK
Put plainly: alkyne probe labelling in cells, CuAAC to biotin azide, streptavidin pull-down, immunoblot. As to conditions: covalent; 125 μM in intact 786-O cells.

Test [4] has as its target T2, MAVS. Described as above. As to conditions: covalent; 125 μM, 4 or 24 h in intact 786-O cells.

`C=C(CC(=O)OCCCCCCCC)C(=O)O` [4-OI, 4-octyl itaconate]: the “competition with 4-OI-alk in affinity pull-down, immunoblot” value was “non-tagged 4-OI competed with 4-OI-alk and reduced the interaction between IKKβ and 4-OI-alk” on IKKβ [1]; “non-alkyne-tagged 4-OI to compete with 4-OI-alk led to a reduced interaction between MAVS and 4-OI-alk” at MAVS [2].

`C#CCCCCCCOC(=O)CC(=C)C(=O)O` [4-OI-alk, 2-methylene-4-(oct-7-yn-1-yloxy)−4-oxobutanoic acid]: the “alkyne probe labelling in cells, CuAAC to biotin azide, streptavidin pull-down,” value was “We further validated the interaction between IKKβ and 4-OI-alk in cancer cells by pull-down” on IKKβ [3]; “We confirmed the binding of 4-OI-alk to JAK1 in our cellular model” on JAK1; “We observed an enrichment in 4-OI-alk labeling of MAVS, demonstrating the protein-drug interaction” at MAVS [4]. The “alkyne probe labelling in transfected cells, CuAAC to biotin azide, streptavidin” value at Flag-MAVS is “partial reduction of 4-OI-alk labeling of MAVS C283A compared to MAVS wt”.
